Data: paper PMC8625065 (Molecules, 2021)
Marks after values point to notes of the source that are not given here.

Assays:
[1] = tested on: A549 (lung adenocarcinoma); assay: MTT proliferation assay, 72 h; assay type: cell-based; settings: Homo sapiens, A549 cells
Description: (§1) The cell lines HeLa (cervical carcinoma), SW620 (colorectal adenocarcinoma, metastatic), A549 (lung adenocarcinoma), HepG2 (hepatocellular carcinoma) and HFF (human foreskin fibroblasts) were cultured as monolayers and maintained in Dulbecco’s modified Eagle medium (DMEM), supplemented with 10% fetal bovine serum (FBS), 2mM L-glutamine, 100 U/mL penicillin and 100 μg/mL streptomycin in a humidified atmosphere with 5% CO2 at 37 °C.
(§2) Cells were seeded onto 96-well microtiter plates at a seeding density of 3000 cells/well for carcinoma cell lines, and 5000 cells/well for normal human fibroblasts. The next day, cells were treated with test agents at five different concentrations (0.01–100 µM) and further incubated for 72 h. […] Following 72 h incubation, the MTT assay was performed and measured absorbances were transformed into percentage of cell growth as described previously. Results were obtained from three independent experiments.

[2] = tested on: HeLa (cervical carcinoma); assay: MTT proliferation assay, 72 h; assay type: cell-based, human; settings: for IC50: Homo sapiens, HeLa cells, MTT, 72 h
Description: as §1, §2

[3] = tested on: HepG2 (hepatocellular carcinoma); assay: MTT proliferation assay, 72 h; assay type: cell-based, human; settings: Homo sapiens; HepG2 cells, MTT, 72 h
Description: as §1, §2

[4] = tested on: SW620 (colorectal adenocarcinoma, metastatic); assay: MTT proliferation assay, 72 h; assay type: cell-based, human; settings: for IC50: Homo sapiens, SW-620, SW620 cells, MTT, 72 h
Description: as §1, §2

[5] = tested on: HFF (human foreskin fibroblasts); assay: MTT proliferation assay, 72 h, non-tumor cells; assay type: cell-based; settings: Homo sapiens, Fibroblast; non-tumor HFF fibroblasts, MTT, 72 h
Description: as §1, §2

p(dAdT)2 (AT-DNA) = assay: Fluorimetric titration, Scatchard processing; assay type: binding; settings: p(dAdT)2, pH 7.0, sodium cacodylate buffer, I = 0.05 mol dm^-3
Description: (§3) Compound solutions were used for measurements in aqueous buffer (pH = 7, sodium cacodylate buffer, I = 0.05 mol dm^−3). Polynucleotides were purchased as noted: poly A-poly U, poly (dAdT)2 and calf thymus (ct)DNA (Sigma-Aldrich). Polynucleotides were dissolved in Na-cacodylate buffer, I = 0.05 mol dm^−3, pH = 7. The calf thymus ctDNA was additionally sonicated and filtered through a […]. Polynucleotide concentration was determined spectroscopically as the concentration of phosphates.
(§4) Fluorescence spectra were recorded on a Varian Cary Eclipse spectrophotometer at 25 °C using appropriate 1cm path quartz cuvettes. Fluorometric experiments were performed at pH = 7 (I = 0.05 mol dm^−3, sodium cacodylate buffer) by adding portions of polynucleotide solution into the solution of the studied compound. In fluorometric experiments, an excitation wavelength of λexc ≥ 300 nm was used to avoid the inner filter effect caused due to increasing absorbance of the polynucleotide. Emissions were determined in the range λem = 300–600 nm. Values for Ks obtained by processing titration data using the Scatchard equation [40], in most titrations have satisfactory correlation coefficients (≥0.98).

ctDNA = assay: Thermal melting experiment; assay type: binding, calf; settings: r = [compound]/[polynucleotide] = 0.3, pH 7.0, error ±0.5 °C
Description: (§5) Compound solutions were used for measurements in aqueous buffer (pH = 7, sodium cacodylate buffer, I = 0.05 mol dm^−3). Polynucleotides were purchased as noted: poly A-poly U, poly (dAdT)2 and calf thymus (ct)DNA (Sigma-Aldrich). Polynucleotides were dissolved in Na-cacodylate buffer, I = 0.05 mol dm^−3, pH = 7. The calf thymus ctDNA was additionally sonicated and filtered through a […]. Polynucleotide concentration was determined spectroscopically as the concentration of phosphates. UV–Vis spectra were recorded on a Varian Cary 100 Bio spectrophotometer using 1cm path quartz cuvettes. Calibration experiments were performed at 25 °C and pH = 7 (I = 0.05 mol dm^−3, sodium cacodylate buffer). Thermal melting curves for DNA and their complexes with studied compounds were determined as previously described by following the absorption change at 260 nm as a function of temperature. The absorbance of the ligands was subtracted from every curve and the absorbance scale was normalized. Tm values are the midpoints of the transition curves determined from the maximum of the first derivative and checked graphically by the tangent method. The ΔTm values were calculated by subtracting the Tm of the free nucleic acid from the Tm of the complex. Every ΔTm value reported here was the average of at least two measurements. The error in ΔTm is ±0.5 °C.

poly A-poly U = assay: Thermal melting experiment; assay type: binding; settings: r = 0.3, pH 7.0, error ±0.5 °C
Description: as §5

poly(dAdT)2 = assay: Thermal melting experiment; assay type: binding; settings: poly(dAdT)2, r = 0.3, pH 7.0; error ±0.5 °C
Description: as §5

[6] = tested on: poly A-poly U (RNA, polymer) A/U; assay: CD titration; settings: Na+ (sodium cacodylate, I = 0.05 M); sodium cacodylate buffer pH 7, 25 °C; weak negative ICD near 300 nm, intercalation
[7] = tested on: poly (dAdT)2 (DNA, polymer) AT; assay: UV thermal melting, 260 nm; settings: Na+ (sodium cacodylate, I = 0.05 M); sodium cacodylate buffer pH 7
[8] = tested on: poly (dAdT)2 (DNA, polymer) AT; assay: fluorescence titration, Scatchard; settings: Na+ (sodium cacodylate, I = 0.05 M); sodium cacodylate buffer pH 7.0, 25 °C; polynucleotide concentration as phosphates; per base
ctDNA (calf thymus DNA) = assay: Fluorimetric titration, Scatchard processing; assay type: binding; settings: pH 7.0, sodium cacodylate buffer, I = 0.05 mol dm^-3
Description: as §3, §4

poly A-poly U (AU-RNA) = assay: Fluorimetric titration, Scatchard processing; assay type: binding; settings: pH 7.0, sodium cacodylate buffer, I = 0.05 mol dm^-3
Description: as §3, §4

[9] = Solubility of stock solution in water; assay type: physicochemical; settings: c = 2 × 10^−3 mol dm^−3
From the text: Based upon the antiproliferative activity, several compounds from a series of novel amidine- and amidoxime-substituted heterocycles (5, 6, 8–11 and 20) were selected for the study with calf thymus DNA (ctDNA), alternating AT-DNA (poly (dAdT)2) and AU-RNA (poly A-poly U).

| SMILES | IC50 [1] [µM] | IC50 [2] [µM] | IC50 [3] [µM] | IC50 [4] [µM] | IC50 [5] [µM] | logKs (p(dAdT)2 (AT-DNA)) | ΔTm (ctDNA) [°C] | ΔTm (poly A-poly U) [°C] | ΔTm (poly(dAdT)2) [°C] | binding [6] | binding [7] | logKs [8] | selectivity index (SI) on HeLa ([2]; HFF versus HeLa cells) | selectivity index (SI) on SW620 ([4]; HFF versus SW620 cells) | logKs (ctDNA (calf thymus DNA)) | logKs (poly A-poly U (AU-RNA)) | solubility in water [9] | melting point [°C] |
| --- | --- | --- | --- | --- | --- | --- | --- | --- | --- | --- | --- | --- | --- | --- | --- | --- | --- | --- |
| Cl.O=c1cc(OCc2cn(-c3ccc(C4=NCCN4)cc3)nn2)c2ccccc2o1 [Compound 10, 4-((1-(4-(4,5-Dihydro-1H-imidazol-2-yl)phenyl)-1H-1,2,3-triazol-4-yl)methyloxy)-coumarin hydrochloride] | 7.86 | 1.9 | 3.55 | 1.75 | < 0.01 | 6.7 | 0 | 0 | 2 | yes | yes | 6.7 |  |  |  |  |  |  |
| N/C(=N\O)c1ccc(-n2cc(COc3cccc4ccc(/C(N)=N/O)nc34)nn2)cc1 [Compound 20, (Z)-N′-Hydroxy-8-((1-(4-((Z)-N′-hydroxycarbamimidoyl)phenyl)-1H-1,2,3-triazol-4-yl)methoxy)quinoline-2-carboximidamide] | 31.4 | 7.15 | 51.3 | 7.24 |  | 4.7 ^d | 0 | 0 | 0 |  |  |  | > 14 | > 14 | 4.3 ^d | 4.6 ^d | small aggregation | 238 to 241 |
